Laboratory results from patent publication EP2975033A1, “Improved cysteine-protease inhibitors” (Universitat Jaume I, priority 2014, dated 2016).
In brackets after ≈: the same amount, converted by molar mass. Like-named read-outs stand apart in the source and are kept apart here.

Key:
[1] = system: P. falciparum NF54 strain; test: Activity against P. falciparum, 3H-hypoxanthine incorporation assay; format: cell-based; details: for IC50: Plasmodium falciparum
[2] = target: T1, Falcipain 2 (Plasmodium falciparum, UniProt Q8I6U4); test: Protease assay, fluorogenic substrate Z-Phe-Arg-AMC: Falcipain 2; format: biochemical; details: FP2=Falcipain2
T1 construct: made in house
T1 sequence (Q8I6U4 244-484): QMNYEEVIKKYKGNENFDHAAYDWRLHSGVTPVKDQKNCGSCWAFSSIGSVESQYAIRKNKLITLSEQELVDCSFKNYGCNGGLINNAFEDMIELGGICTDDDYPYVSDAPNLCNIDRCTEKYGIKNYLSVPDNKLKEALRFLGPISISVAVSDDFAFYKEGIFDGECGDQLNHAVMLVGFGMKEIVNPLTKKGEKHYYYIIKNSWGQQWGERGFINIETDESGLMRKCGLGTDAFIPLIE
Source text: (§1) 2.1.1. Protease Assays as shown in tables 1 and 2: Cathepsin L (human), Cathepsin B (human), Rhodesain (Trypanosoma brucei rhodesiense), Falcipain 2 (Plasmodium falciparum)
(§2) Enzyme assays used to identify inhibitors of the target cysteine proteases. The effect is detected measuring fluorescence increase due to hydrolysis of fluorogenic substrates by the target enzymes in absence and presence of potential inhibitors.
(§3) • a. Proteins (enzymes): • Cathepsin L (human liver) Calbiochem • Cathepsin B (human liver) Calbiochem • Rhodesain: recombinantly expressed according to ref.: Caffrey, C. R.; Hansell, E.; Lucas, K. D.; Brinen, L. S.; Hernandez, A. A.; Cheng, J.; Gwaltney, S. L., II; Roush, W. R.; Stierhof, Y. D.; Bogyo, M.; Steverding, D.; McKerrow, J. H. Active site mapping, biochemical properties and subcellular localization of rhodesain, the major cysteine protease of Trypanosoma • Falcipain 2: recombinantly expressed according to ref.: Pandey, K. C.; Wang, S. X.; Sijwali, P. S.; Lau, A. L.; McKerrow, J. H.; Rosenthal, P. J. The Plasmodium falciparum cysteine protease falcipain-2 captures its substrate, hemoglobin, via a unique motif. Proc. Natl. Acad. Sci. U.S.A. 2005, 102, 9138-9143. • b. Buffers: • Cathepsin B: 50 mM Tris-Puffer pH 6.5 mit 2 mM DTT, 5 mM EDTA, 200 mM NaCl, 0.005% Brij35 • Cathepsin L: 50 mM Tris-Puffer pH 6.5 mit 2 mM DTT, 5 mM EDTA, 200 mM NaCl, 0.005% Brij35 • Rhodesain: 50 mM Acetat-Puffer pH 5.5 mit 5 mM DTT, 5 mM EDTA, 200 mM NaCl, 0.005% Brij35 • Falcipain 2: 50 mM Acetat-Puffer pH 5.5 mit 5 mM DTT, 5 mM EDTA, 200 mM NaCl, 0.005% Brij35 • c. Substrates: • Cathepsin L: 6,25 µM Z-Phe-Arg-7-amino-4-methylcumarin, HCl von Bachem, Ex 380 nm, Em 460 nm • Cathepsin B: 100 µM Z-Phe-Arg-7-amino-4-methylcumarin, HCl von Bachem, Ex 380 nm, Em 460 nm • Rhodesain: 10µM Z-Phe-Arg-7-amino-4-methylcumarin, HCl von Bachem, Ex 380 nm, Em 460 nm • Falcipain 2: 25µM Z-Phe-Arg-7-amino-4-methylcumarin, HCl von Bachem, Ex 380 nm, Em 460 nm • Reference substance(s)/positive control(s): E64 • d. Solvent for inhibitors and substrates: DMSO 99,5% (GC) DC4540, Sigma • e. Measurement device: Tecan Fluorescence spectrophotometer infinite F200 Pro • f. Well plates: 96 well plates, Lia-Plate White, Greiner bio-one, flat bottom, high binding • g. Methodology: Substrates and inhibitor stock solutions are prepared in DMSO and diluted with the respective assay buffer (final DMSO concentration: […]). Enzyme stock solutions are diluted with assay buffer to yield a fluorescence increase of dF/min ≈ _20. Total volume: 200 µL (180 µL of assay buffer, 5 µL of enzyme solution, 10 µL of DMSO or inhibitor solution, 5 µL of substrate solution). Assays are started by the addition of substrate solution. Fluorescence increase is detected over a period of 10 - 30 min, depending on time dependent (30 min) or non-time dependent (10 min) inhibition. • h. Temp: 25 °C • i. DATA-[…] • Software: Grafit 5.013 • Ki values are calculated from IC50 values (obtained by the 4-parameter IC50 equation) using the Chen-Prusoff equation: Ki=IC50/(1 + [S]/Km)
(§4) In vitro inhibition of cysteine-proteases cruzain (CR) (Trypanosoma cruzi (T. cruzi)), rhodesain (RD) (T. brucei), cathepsin B (CB), falcipain (FP2) (Plasmodium falciparum) and cathepsin L (CL) was assessed by quantification of the resulting fluorescence emission of the proteolytic breakdown of synthetic compound Z-Phe-Arg-AMC (Bachem). The results of this determination are shown in tables 1 and 2 illustrated above.

[3] = target: T2, Cathepsin L (human) (Homo sapiens, UniProt P07711); test: Protease assay, fluorogenic substrate Z-Phe-Arg-AMC: Cathepsin L; format: biochemical
T2 construct: Cathepsin L (human liver) Calbiochem; purchased Calbiochem; host or cells: human liver (tissue-derived)
T2 sequence (P07711 114-333): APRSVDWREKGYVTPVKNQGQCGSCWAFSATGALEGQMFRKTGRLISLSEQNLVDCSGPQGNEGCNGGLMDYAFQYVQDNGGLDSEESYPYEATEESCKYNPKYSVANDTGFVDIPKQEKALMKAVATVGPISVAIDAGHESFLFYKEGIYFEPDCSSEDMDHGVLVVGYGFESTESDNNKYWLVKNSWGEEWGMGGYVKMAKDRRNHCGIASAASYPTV
Source text: as §1, §2, §3, §4

[4] = system: Trypanosoma brucei rhodesiense STIB900; test: Activity against Trypanosoma brucei rhodesiense STIB900 (Alamar Blue); format: cell-based; details: for IC50: Trypanosoma brucei
Description: (§5) For all the susceptibility assays with parasites and cells, each drug was tested in duplicate and each assay was repeated at least once. • a. Activity against Trypanosoma brucei rhodesiense STIB900. This stock was isolated in 1982 from a human patient in Tanzania and after several mouse passages cloned and adapted to axenic culture conditions (Baltz et al 1985) Minimum Essential Medium (50 µl) supplemented with 25 mM HEPES, 1g/l additional glucose, 1% MEM non-essential amino acids (100x), 0.2 mM 2-mercaptoethanol, 1 mM Na-pyruvate and 15% heat inactivated horse serum was added to each well of a 96-well microtiter plate. Serial drug dilutions of eleven 3-fold dilution steps covering a range from 100 to 0.002 µg/ml were prepared. Then 4x10^3 bloodstream forms of T. b. rhodesiense STIB 900 in 50 µl was added to each well and the plate incubated at 37 °C under a 5 % CO2 atmosphere for 70 h. 10 µl Alamar Blue (resazurin, 12.5 mg in 100 ml double-distilled water) was then added to each well and incubation continued for a further 2-4 h (Raz et al 1997). Then the plates were read with a Spectramax Gemini XS microplate fluorometer (Molecular Devices Cooperation, Sunnyvale, CA, USA) using an excitation wave length of 536 nm and an emission wave length of 588 nm. The IC50 values were calculated by linear regression (Huber 1993) from the sigmoidal dose inhibition curves using SoftmaxPro software (Molecular Devices Cooperation, Sunnyvale, CA, USA). Melarsoprol (Arsobal Sanofi-Aventis, received from WHO) is used as control. • b. Activity against T. cruzi. Rat skeletal myoblasts (L-6 cells) were seeded in 96-well microtitre plates at 2000 cells/well in 100 µL RPMI 1640 medium with 10% FBS and 2 mM I-glutamine. After 24 h the medium was removed and replaced by 100 µl per well containing 5000 trypomastigote forms of T. cruzi Tulahuen strain C2C4 containing the β-galactosidase (Lac Z) gene (Buckner et al. 1996). After 48 h the medium was removed from the wells and replaced by 100 µl fresh medium with or without a serial drug dilution of eleven 3-fold dilution steps covering a range from 100 to 0.002 µg/ml. After 96 h of incubation the plates were inspected under an inverted microscope to assure growth of the controls and sterility. Then the substrate CPRG/Nonidet (50 µl) was added to all wells. A color reaction developed within 2-6 h and could be read photometrically at 540 nm. Data were analyzed with the graphic programme Softmax Pro (Molecular Devices), which calculated IC50 values by linear regression (Huber 1993) from the sigmoidal dose inhibition curves. […] Activity against L. donovani axenic amastigotes. Amastigotes of L. donovani strain MHOM/ET/67/L82 were grown in axenic culture at 37 °C in SM medium (Cunnigham et al. 1977) at pH 5.4 supplemented with 10% heat-inactivated fetal bovine serum under an atmosphere of 5% CO2 in air. One hundred microlitres of culture medium with 10^5 amastigotes from axenic culture with or without a serial drug dilution were seeded in 96-well microtitre plates. Serial drug dilutions of eleven 3-fold dilution steps covering a range from 90 to 0.002 µg/ml were prepared. After 70 h of incubation the plates were inspected under an inverted microscope to assure growth of the controls and sterile conditions. 10 µl of Alamar Blue (12.5 mg resazurin dissolved in 100 ml distilled water) (Mikus and Steverdig. 2000) were then added to each well and the plates incubated for another 2 h. Then the plates were read with a Spectramax Gemini XS microplate fluorometer (Molecular Devices Cooperation, Sunnyvale, CA, USA) using an excitation wave length of 536 nm and an emission wave length of 588 nm. Data were analyzed using the software Softmax Pro (Molecular Devices Cooperation, Sunnyvale, CA, USA). Decrease of fluorescence (= inhibition) was expressed as percentage of the fluorescence of control cultures and plotted against the drug concentrations. From the sigmoidal inhibition curves the IC50 values were calculated. • d.

[5] = target: T3, Rhodesain (Trypanosoma brucei rhodesiense, UniProt Q95PM0); test: Protease assay, fluorogenic substrate Z-Phe-Arg-AMC: Rhodesain; format: biochemical; details: for IC50: RD=Rhodesain, 25 °C, pH 5.5, 10µM substrate
T3 construct: made in house
T3 sequence (Q95PM0 entry or part of it): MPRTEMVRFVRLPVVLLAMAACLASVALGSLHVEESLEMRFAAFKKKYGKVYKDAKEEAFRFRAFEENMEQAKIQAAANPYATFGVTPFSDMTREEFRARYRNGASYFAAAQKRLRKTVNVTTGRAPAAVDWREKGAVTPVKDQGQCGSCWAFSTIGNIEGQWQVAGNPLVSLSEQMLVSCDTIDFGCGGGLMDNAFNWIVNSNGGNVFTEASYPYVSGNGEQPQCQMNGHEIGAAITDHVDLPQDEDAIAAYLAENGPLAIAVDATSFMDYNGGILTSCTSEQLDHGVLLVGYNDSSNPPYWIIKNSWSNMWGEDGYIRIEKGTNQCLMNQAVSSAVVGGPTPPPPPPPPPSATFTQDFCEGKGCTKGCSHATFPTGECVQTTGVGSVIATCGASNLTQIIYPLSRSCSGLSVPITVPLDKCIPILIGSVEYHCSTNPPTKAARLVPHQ
Source text: as §1, §2, §3, §4

[6] = target: cruzain (CR) (Trypanosoma cruzi, UniProt P25779); test: In vitro inhibition of cruzain, fluorescence of Z-Phe-Arg-AMC breakdown; format: biochemical
Chain of cruzain (CR) (P25779 123-467): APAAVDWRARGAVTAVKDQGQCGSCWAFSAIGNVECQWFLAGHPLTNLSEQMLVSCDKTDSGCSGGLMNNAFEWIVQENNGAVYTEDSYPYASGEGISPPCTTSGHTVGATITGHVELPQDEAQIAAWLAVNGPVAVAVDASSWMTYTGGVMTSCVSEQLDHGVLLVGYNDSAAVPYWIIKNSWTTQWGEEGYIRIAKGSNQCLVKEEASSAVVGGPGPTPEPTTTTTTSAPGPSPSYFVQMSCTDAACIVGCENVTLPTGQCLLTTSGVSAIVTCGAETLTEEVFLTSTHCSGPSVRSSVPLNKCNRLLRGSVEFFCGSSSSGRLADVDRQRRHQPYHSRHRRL
Description: as §2, §4

[7] = target: T4, Cathepsin B (human) (Homo sapiens, UniProt P07858); test: Protease assay, fluorogenic substrate Z-Phe-Arg-AMC: Cathepsin B; format: biochemical
T4 construct: Cathepsin B (human liver) Calbiochem; purchased Calbiochem; host or cells: human liver (tissue-derived)
Source text: as §1, §2, §3, §4

[8] = system: T. cruzi Tulahuen strain C2C4; test: Activity against T. cruzi in L-6 cells (beta-galactosidase, CPRG); format: cell-based; details: for IC50: Trypanosoma cruzi, TULAHUEN
Description: as §5

[9] = CL=CathepsinL; 25 °C, pH 6.5, 6,25 µM substrate; read-out: CL(IC50)
[10] = read-out: CBIC50micM; CB=CathepsinB; 25 °C, pH 6.5, 100 µM substrate
[11] = read-out: CL(IC50); CL=CathepsinL; 25 °C, pH 6.5, 6,25 µM substrate

CCN(CC)CCCC(C)Nc1ccnc2cc(Cl)ccc12 (stereo not shown) [Chloroquine, reference compound]
IC50 ([1]; NF54, read-out: P.falc NF54 IC50 mean, mean of replicates): 3 ng/mL (≈ 0.00938 µM)
IC50 ([1]; NF54, read-out: P.falc NF54 IC50 repl1, replicate 1, erythrocytic stages, NF54): 3 ng/mL (≈ 0.00938 µM)
IC50 ([1]; NF54, read-out: P.falc NF54 IC50 repl2, replicate 2, erythrocytic stages, NF54): 2 ng/mL (≈ 0.00625 µM)
P.falc NF54 IC50 repl1 ([1]; replicate 1, erythrocytic stages, NF54): 0,002 micrograms/mL

O=C(O)/C=C/[C@@H](O)[C@H](CCc1ccccc1)NC(=O)[C@H](Cc1ccccc1)NC(=O)OCc1ccccc1
FP2(K2nd(M-1s-1)) [2]: 29 M⁻¹ s⁻¹
CL(K2nd(M-1s-1)) ([3]; CL=CathepsinL): 882 M⁻¹ s⁻¹
IC50 [3, 9]: 20000 nM

Nc1nc(N)nc(Nc2ccc([As]3SCC(CO)S3)cc2)n1 (stereo not shown) [Melarsoprol, reference compound]
IC50 ([4]; 70 h, read-out: T.b.rhod. IC50 repl1, replicate 1, bloodstream forms, 70 h): 5 ng/mL
IC50 ([4]; 70 h, read-out: T.b.rhod. IC50 repl2, replicate 2, bloodstream forms, 70 h): 2 ng/mL
IC50 ([4]; read-out: T.b.rhod. IC50 mean, mean of replicates): 3 ng/mL
T.b.rhod. IC50 mean ([4]; mean of replicates): 0,004 micrograms/mL
T.b.rhod. IC50 repl1 ([4]; replicate 1, bloodstream forms, 70 h): 0,003 micrograms/mL
T.b.rhod. IC50 repl2 ([4]; replicate 2, bloodstream forms, 70 h): 0,004 micrograms/mL

CCOC(=O)/C=C/C(=O)[C@H](CC(C)C)NC(=O)[C@H](Cc1ccccc1)NC(=O)OCc1ccccc1
RD(K2nd(M-1s-1)) [5]: 1611111 M⁻¹ s⁻¹
IC50 [5]: 16.4 nM
CR(K2nd(M-1s-1)) [6]: 516667 M⁻¹ s⁻¹
IC50 [6]: 16.2 nM
CB(K2nd(M-1s-1)) ([7]; CB=CathepsinB): 138462 M⁻¹ s⁻¹
IC50 [7, 10]: 53 nM
CL(K2nd(M-1s-1)) ([3]; CL=CathepsinL): 758621 M⁻¹ s⁻¹
IC50 [3, 11]: 9.6 nM

CC(C)C[C@H](NC(=O)[C@H](Cc1ccccc1)NC(=O)OCc1ccccc1)C(=O)/C=C/S(=O)(=O)c1ccccc1
RD(K2nd(M-1s-1)) [5]: 1361750 M⁻¹ s⁻¹
IC50 [5]: 6 nM
CR(K2nd(M-1s-1)) [6]: 709411 M⁻¹ s⁻¹
IC50 [6]: 11.1 nM
CB(K2nd(M-1s-1)) ([7]; CB=CathepsinB): 82248 M⁻¹ s⁻¹
IC50 [7, 10]: 50 nM
CL(K2nd(M-1s-1)) ([3]; CL=CathepsinL): 383272 M⁻¹ s⁻¹
IC50 [3, 11]: 9.95 nM

O=C(Cn1ccnc1[N+](=O)[O-])NCc1ccccc1 [Benznidazole]
IC50 ([8]; L6, 96 h, replicate 1, L-6 cells, 96 h, read-out: T.cruzi. IC50 repl1): 0.657 µg/mL (≈ 2.52 µM)
IC50 ([8]; L6, 96 h, replicate 2, L-6 cells, 96 h, read-out: T.cruzi. IC50 repl2): 0.522 µg/mL (≈ 2.01 µM)
IC50 ([8]; L6, control value stated in the method text): 0.5 ± 0.2 µg/mL (≈ 1.92 µM)
IC50 ([8]; L6, mean of replicates, read-out: T.cruzi. IC50 mean): 0.59 µg/mL (≈ 2.27 µM)
T.cruzi. IC50 mean ([8]; mean of replicates): 0,516 micrograms/mL
T.cruzi. IC50 repl1 ([8]; replicate 1, L-6 cells, 96 h): 0,367 micrograms/mL
T.cruzi. IC50 repl2 ([8]; replicate 2, L-6 cells, 96 h): 0,664 micrograms/mL

CCOC(=O)/C=C/[C@@H](O)[C@H](CCc1ccccc1)NC(=O)[C@H](Cc1ccccc1)NC(=O)N1CCOCC1
RD(K2nd(M-1s-1)) [5]: 36735 M⁻¹ s⁻¹
IC50 [5]: 1130 nM
CR(K2nd(M-1s-1)) [6]: 3615 M⁻¹ s⁻¹
IC50 [6]: 3750 nM
CB(K2nd(M-1s-1)) ([7]; CB=CathepsinB): 4190 M⁻¹ s⁻¹
IC50 ([7]; CB=CathepsinB; 25 °C, pH 6.5, 100 µM substrate; read-out: CBIC50micM): 1130 nM
CL(K2nd(M-1s-1)) ([3]; CL=CathepsinL): 1860 M⁻¹ s⁻¹
IC50 [3, 9]: 2450 nM

CCOC(=O)C=CC(O)C(CCc1ccccc1)NC(=O)C(Cc1ccccc1)NC(=O)OCc1ccccc1 (single isomer, unassigned)
CB(K2nd(M-1s-1)) ([7]; CB=CathepsinB): 14 M⁻¹ s⁻¹
CL(K2nd(M-1s-1)) ([3]; CL=CathepsinL): 77 M⁻¹ s⁻¹
